In US6610504B1, “Methods of determining SAM-dependent methyltransferase activity using a mutant SAH hydrolase” (General Atomics, priority 2000, dated 2003):
Residue numbers refer to the chain shown, from its start. Names and notes keep the numbering of the source.

Assays:
[1] = target: T1, serum vitamin D binding protein (Homo sapiens, UniProt P02774); conditions: binding to serum vitamin D binding protein, Langmuir isotherm, nonlinear least-squares fit; cited from earlier work
T1 sequence (P02774 17-474): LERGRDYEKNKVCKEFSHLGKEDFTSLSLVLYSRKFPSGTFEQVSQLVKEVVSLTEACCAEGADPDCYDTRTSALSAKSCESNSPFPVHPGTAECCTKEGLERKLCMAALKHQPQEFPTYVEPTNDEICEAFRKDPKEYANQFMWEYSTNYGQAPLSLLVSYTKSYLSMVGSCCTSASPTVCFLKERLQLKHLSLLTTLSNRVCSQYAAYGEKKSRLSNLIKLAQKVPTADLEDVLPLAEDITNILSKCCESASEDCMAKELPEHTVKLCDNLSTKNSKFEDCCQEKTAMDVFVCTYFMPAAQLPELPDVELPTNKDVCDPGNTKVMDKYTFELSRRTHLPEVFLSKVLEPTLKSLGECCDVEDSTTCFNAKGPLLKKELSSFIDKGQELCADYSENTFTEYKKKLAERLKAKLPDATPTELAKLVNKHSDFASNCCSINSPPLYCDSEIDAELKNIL

[2] = target: cellular retinoic acid-binding protein I (CRABPI) (Homo sapiens, UniProt P29762); conditions: read-out: apparent dissociation constant; probe binding to CRABPI; cited from earlier work
[3] = target: T2, cellular retinol-binding protein (CRBP) (Homo sapiens, UniProt P09455); conditions: read-out: apparent dissociation constant; probe binding to CRBP; cited from earlier work
T2 sequence (P09455 1-135): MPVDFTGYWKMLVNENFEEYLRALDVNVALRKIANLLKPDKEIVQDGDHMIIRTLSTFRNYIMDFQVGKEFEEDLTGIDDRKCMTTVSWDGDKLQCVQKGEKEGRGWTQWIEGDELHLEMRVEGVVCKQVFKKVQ

[4] = target: T3, keratinocyte lipid-binding protein (KLBP) (Mus musculus, UniProt Q05816); conditions: read-out: apparent dissociation constant (Kd); probe binding to KLBP; cited from earlier work
T3 sequence (Q05816 1-135): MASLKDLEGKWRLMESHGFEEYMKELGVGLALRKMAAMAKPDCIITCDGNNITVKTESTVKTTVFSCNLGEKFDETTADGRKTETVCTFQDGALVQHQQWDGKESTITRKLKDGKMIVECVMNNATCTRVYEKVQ

[5] = target: T4, KLBP (Mus musculus, UniProt Q05816); conditions: displacement of 1,8-ANS from KLBP; cited from earlier work
T4 sequence (Q05816 1-135): T3 sequence (Q05816 1-135)

[6] = target: T5, ALBP (Mus musculus, UniProt P04117); conditions: displacement of 1,8-ANS from ALBP, cited from earlier work; for Ki: read-out: apparent inhibitor constant (Ki)
T5 sequence (P04117 1-132): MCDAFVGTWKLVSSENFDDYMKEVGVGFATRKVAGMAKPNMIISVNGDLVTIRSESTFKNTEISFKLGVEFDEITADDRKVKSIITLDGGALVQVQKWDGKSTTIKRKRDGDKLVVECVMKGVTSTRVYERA

[7] = target: T6, CRBP (Homo sapiens, UniProt P09455); conditions: displacement of 1,8-ANS from CRBP; cited from earlier work
T6 sequence (P09455 1-135): T2 sequence (P09455 1-135)

[8] = target: T7, SAH hydrolase (Homo sapiens, UniProt P23526); assay: SAH hydrolase activity, hydrolytic direction (kinetic constants for SAH); assay type: biochemical; conditions: substrate SAH
T7 construct: made in house; host or cells: E. coli JM109, vector pKK223-3
Description: The assay of SAH hydrolase activity in the hydrolytic direction was performed as described in Yuan et al., J. Biol. Chem., 271:28008-28016, 1996). The assay measures the hydrolysis of SAH into Ado and Hcy. The reaction product Hcy was derivatized by thiol specific reagent DTNB for colometric determination at 412 nm. The assay for SAH hydrolase in the synthetic direction was measured by the formation of SAH from substrate Ado and Hcy using HPLC (see, Yuan et al., J. Biol. Chem., 268:17030-17037 (1993). One unit of the enzyme activity was defined as the amount of enzyme that can hydrolyze or synthesize 1 μmole of SAH/min/mg.
Mutant SAH hydrolase (e.g., F302S) was specifically fluorescence labels on Cys421, an non-essential cysteine residue which is located on the surface of the protein that is not involved in substrate binding and catalysis. Cys421 residue is readily accessible by thiol reactive molecules, and can be modified without effect the binding affinity of the enzyme. Thiol specific reactive probes such as 7-diethylamino-3(4′-maleimidylphenyl)-4-methylcoumarin (CPM) can specifically label protein thiols. Mutant SAH hydrolase (F302S) (0.5 mg/ml) in 50 mM phosphate buffer, pH 7.2, was incubated with 2 mM of adenine to protect other thiols in the substrate binding site, followed by addition of CPM to final concentration of 50 μM. The reaction mixture was incubated at room temperature for 30 min. followed by gel filtration on a size exclusion column (Sephacryl S-300, […]×60 cm) to remove adenine and excess CPM. The CPM-labeled F302S mutant SAH hydrolase (2 mg/ml) was kept in 50 mM phosphate buffer containing 20% glycerol at −20° C. The comparison of Km (SAH) and Kcat (SAH) for wild type and mutant F302S is shown below in Table 10.

T7 sequence (P23526 whole entry): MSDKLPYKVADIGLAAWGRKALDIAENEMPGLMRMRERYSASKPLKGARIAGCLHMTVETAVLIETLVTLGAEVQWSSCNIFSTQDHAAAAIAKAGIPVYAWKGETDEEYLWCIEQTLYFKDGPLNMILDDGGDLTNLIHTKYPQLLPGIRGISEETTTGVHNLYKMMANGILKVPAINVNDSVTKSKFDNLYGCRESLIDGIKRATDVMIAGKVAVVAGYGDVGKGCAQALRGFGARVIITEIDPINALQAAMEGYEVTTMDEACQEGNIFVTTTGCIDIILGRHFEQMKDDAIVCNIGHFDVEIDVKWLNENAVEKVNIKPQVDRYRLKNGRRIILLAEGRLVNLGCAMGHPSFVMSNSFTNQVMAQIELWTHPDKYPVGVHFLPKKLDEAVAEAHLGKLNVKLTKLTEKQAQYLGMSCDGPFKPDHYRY
Chain of cellular retinoic acid-binding protein I (CRABPI) (P29762 whole entry, species assumed): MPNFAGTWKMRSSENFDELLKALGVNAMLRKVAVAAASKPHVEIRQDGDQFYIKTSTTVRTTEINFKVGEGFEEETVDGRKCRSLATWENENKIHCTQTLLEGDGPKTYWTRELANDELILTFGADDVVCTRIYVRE

25-hydroxyvitamin D
Kd [1]: 5.59 µM

O=S(=O)(O)c1cccc2cccc(Nc3ccccc3)c12 [1,8-ANS, 1-anilinonapthalene 8-sulfonic acid]
Kd [2]: 25 µM
Kd [3]: 7.7 µM
Kd [4]: 0.53 µM

CCCCCCCC/C=C\CCCCCCCC(=O)O [Oleic acid]
Ki [5]: 0.42 µM
Ki [6]: 0.134 µM

CC1=C(/C=C/C(C)=C/C=C/C(C)=C/C=O)C(C)(C)CCC1 [all-trans-retinal]
Ki [7]: 1.7 µM

CC1=C(/C=C/C(C)=C/C=C/C(C)=C/C(=O)O)C(C)(C)CCC1 [all-trans-retinoic acid]
Ki [5]: 3.6 µM
Ki [6]: 0.87 µM
Ki [7]: 5.3 µM

CC1=C(/C=C/C(C)=C/C=C/C(C)=C/CO)C(C)(C)CCC1 [all-trans-retinol]
bound by KLBP [5]: neither octanoic acid nor all-trans-retinol were bound
displacement of the fluorophore from ALBP [6]: did not displace

CCCCC/C=C\C/C=C\C/C=C\C/C=C\CCCC(=O)O [arachidonic acid]
Ki [5]: 0.4 µM

CCCCCCCC(=O)O [octanoic acid]
bound by KLBP [5]: neither octanoic acid nor all-trans-retinol were bound
displacement of the fluorophore from ALBP [6]: did not displace

vitamin D
Kd [1]: 91.7 µM

B1: wild type: Human placental SAH hydrolase, wild type, expressed in E. coli JM109 (protein, UniProt P23526 2-432, looked up)
Adenosylhomocysteinase: SDKLPYKVADIGLAAWGRKALDIAENEMPGLMRMRERYSASKPLKGARIAGCLHMTVETAVLIETLVTLGAEVQWSSCNIFSTQDHAAAAIAKAGIPVYAWKGETDEEYLWCIEQTLYFKDGPLNMILDDGGDLTNLIHTKYPQLLPGIRGISEETTTGVHNLYKMMANGILKVPAINVNDSVTKSKFDNLYGCRESLIDGIKRATDVMIAGKVAVVAGYGDVGKGCAQALRGFGARVIITEIDPINALQAAMEGYEVTTMDEACQEGNIFVTTTGCIDIILGRHFEQMKDDAIVCNIGHFDVEIDVKWLNENAVEKVNIKPQVDRYRLKNGRRIILLAEGRLVNLGCAMGHPSFVMSNSFTNQVMAQIELWTHPDKYPVGVHFLPKKLDEAVAEAHLGKLNVKLTKLTEKQAQYLGMSCDGPFKPDHYRY
Kcat (SAH) [8]: 3.8 S^−1
Km [8]: 7.9 µM

B2: F302S: Mutant human SAH hydrolase, Phe 302 to Ser (protein, UniProt P23526 2-432, looked up, variant F302S)
Adenosylhomocysteinase: B1 Adenosylhomocysteinase with F301S
Kcat (SAH) [8]: 0.1 S^−1
Km [8]: 1 µM
